Experimental findings from ChEMBL document CHEMBL1127136, “Vinylogous vs arylogous isocephems” (1993) are described below.

The MIC is the smallest concentration in the dilution series that meets the test's criterion for growth inhibition.

The structures appear in SMILES notation. ≈ marks a conversion by molar mass, not a printed value.

The subject of one experiment is Staphylococcus sp. As to the kind of experiment: Antibacterial activity against staphylococci was determined. It counts as functional.
A further experiment concerns Enterobacteriaceae. As to the kind of experiment: Antibacterial activity against enterobacteriaceae was determined. Format: functional.

In the case of `CO/N=C(/C(=O)N[C@@H]1C(=O)N2C(C(=O)[O-])=C(C[n+]3cccc4ccsc43)SC[C@H]12)c1csc(N)n1`, the MIC turned out to be 0.76 µg/mL (≈ 1.43 µM) against Staphylococcus sp. and 0.12 µg/mL (≈ 0.226 µM) in the experiment with Enterobacteriaceae.

`CO/N=C(/C(=O)N[C@@H]1C(=O)N2C(C(=O)[O-])=C(/C=C/c3cccc(C[n+]4ccccc4)c3)SC[C@H]12)c1csc(N)n1`: the MIC came out at 2.5 µg/mL (≈ 4.34 µM) against Staphylococcus sp. and 8 µg/mL (≈ 13.9 µM) in the experiment on Enterobacteriaceae.

Consider `CO/N=C(/C(=O)N[C@@H]1C(=O)N2C(C(=O)O)=C(CSc3nnnn3C)SC[C@H]12)c1csc(N)n1`, for which the MIC in the experiment on Staphylococcus sp. stood at 15.9 µg/mL (≈ 31.1 µM); against Enterobacteriaceae, 0.4 µg/mL (≈ 0.782 µM).

For `CO/N=C(/C(=O)N[C@@H]1C(=O)N2C(C(=O)[O-])=C(/C=C/c3ccc(C[n+]4ccccc4)cc3)SC[C@H]12)c1csc(N)n1`, the MIC in the experiment with Staphylococcus sp. came to 6.3 µg/mL (≈ 10.9 µM); in the experiment with Enterobacteriaceae, 3.9 µg/mL (≈ 6.76 µM).

As for `CO/N=C(/C(=O)N[C@@H]1C(=O)N2C(C(=O)[O-])=C(/C=C/c3ccc(C[n+]4ccccc4)s3)SC[C@H]12)c1csc(N)n1`, the MIC against Staphylococcus sp. is 3.1 µg/mL (≈ 5.32 µM); against Enterobacteriaceae, 3.8 µg/mL (≈ 6.52 µM).

Take `CO/N=C(/C(=O)N[C@@H]1C(=O)N2C(C(=O)[O-])=C(/C=C\C[N+](C)(C)C)SC[C@H]12)c1csc(N)n1`: the figures for the MIC with Staphylococcus sp. and with Enterobacteriaceae were 10 µg/mL (≈ 20.8 µM) and 1 µg/mL (≈ 2.08 µM), respectively.

For the compound `CO/N=C(/C(=O)N[C@@H]1C(=O)N2C(C(=O)O)=C(/C=C/C=C/C[n+]3cccc4ccsc43)SC[C@H]12)c1csc(N)n1.O=C([O-])C(F)(F)F`, the MIC was found to be 0.38 µg/mL against Staphylococcus sp. and 0.12 µg/mL against Enterobacteriaceae.

Turning to `CO/N=C(/C(=O)N[C@@H]1C(=O)N2C(C(=O)[O-])=C(C[n+]3ccccc3)SC[C@H]12)c1csc(N)n1`, the MIC in the experiment on Staphylococcus sp. was determined as 2.5 µg/mL (≈ 5.27 µM); in the experiment with Enterobacteriaceae, 0.2 µg/mL (≈ 0.421 µM).

For `CO/N=C(/C(=O)N[C@@H]1C(=O)N2C(C(=O)[O-])=C(/C=C/c3ccc(C[n+]4ccccc4)o3)SC[C@H]12)c1csc(N)n1`, the MIC in the experiment with Staphylococcus sp. is 6.3 µg/mL (≈ 11.1 µM); against Enterobacteriaceae, 5.9 µg/mL (≈ 10.4 µM).

Take `CO/N=C(/C(=O)N[C@@H]1C(=O)N2C(C(=O)O)=C(/C=C/C=C/CSc3nnnn3C)SC[C@H]12)c1csc(N)n1`: the values for the MIC in the experiment on Staphylococcus sp. and against Enterobacteriaceae were 5 µg/mL (≈ 8.87 µM) and 1.5 µg/mL (≈ 2.66 µM), respectively.

`CO/N=C(/C(=O)N[C@@H]1C(=O)N2C(C(=O)[O-])=C(/C=C/C[N+](C)(C)C)SC[C@H]12)c1csc(N)n1`: the MIC in the experiment on Staphylococcus sp. came out at 1.2 µg/mL (≈ 2.5 µM); in the experiment with Enterobacteriaceae, 0.19 µg/mL (≈ 0.395 µM).

`CO/N=C(/C(=O)N[C@@H]1C(=O)N2C(C(=O)O)=C(/C=C/CSc3nnnn3C)SC[C@H]12)c1csc(N)n1`: the MIC against Staphylococcus sp. was determined as 2.5 µg/mL (≈ 4.65 µM); in the experiment with Enterobacteriaceae it was 0.14 µg/mL (≈ 0.26 µM).

For `CO/N=C(/C(=O)N[C@@H]1C(=O)N2C(C(=O)[O-])=C(/C=C/C[n+]3cccc4ccsc43)SC[C@H]12)c1csc(N)n1`, the MIC against Staphylococcus sp. came to 0.12 µg/mL (≈ 0.216 µM); against Enterobacteriaceae, 0.03 µg/mL (≈ 0.0539 µM).

Turning to `CO/N=C(/C(=O)N[C@@H]1C(=O)N2C(C(=O)[O-])=C(/C=C/c3ccccc3C[n+]3ccccc3)SC[C@H]12)c1csc(N)n1`, the results for the MIC against Staphylococcus sp. and in the experiment on Enterobacteriaceae were 0.95 µg/mL (≈ 1.65 µM) and 7.3 µg/mL (≈ 12.7 µM), respectively.

With `CO/N=C(/C(=O)N[C@@H]1C(=O)N2C(C(=O)[O-])=C(/C=C/c3cc[n+](C)cc3)SC[C@H]12)c1csc(N)n1`, the MIC against Staphylococcus sp. was determined as 0.8 µg/mL (≈ 1.6 µM); with Enterobacteriaceae it was 0.3 µg/mL (≈ 0.599 µM).

As to `CO/N=C(/C(=O)N[C@@H]1C(=O)N2C(C(=O)[O-])=C(C[N+](C)(C)C)SC[C@H]12)c1csc(N)n1`, the MIC in the experiment on Staphylococcus sp. came to 10 µg/mL (≈ 22 µM); in the experiment with Enterobacteriaceae, 0.28 µg/mL (≈ 0.616 µM).

For `CO/N=C(/C(=O)N[C@@H]1C(=O)N2C(C(=O)[O-])=C(/C=C/C#CC[n+]3ccccc3)SC[C@H]12)c1csc(N)n1`, the MIC with Staphylococcus sp. turned out to be 5 µg/mL (≈ 9.53 µM); against Enterobacteriaceae, 0.4 µg/mL (≈ 0.763 µM).
